Data on seven molecules can be found in PMC10962542, “Inhibition of Aurora‐A/N‐Myc Protein–Protein Interaction Using Peptidomimetics: Understanding the Role of Peptide Cyclization” (Chembiochem, 2023).

Molecules are shown by their SMILES. *1 amine or outer side, *2 acyl side, *3 side chain or, on linkers, in order; H or OH if unused. Where a SMILES comes first, the peptide text is derived from it. Bridges are numbered along the chain shown (N, C = ends). Maleimide(3,4-diyl) = O=C1NC(=O)C([*:2])=C1[*:1]

Data set [1] concerns the target T1, N‐Myc/Aurora‐A interaction (Aurora‐A122‐403‐C290A/C393A) (Homo sapiens, UniProt O14965, C290A/C393A).
T1 construct: Aurora‐A 122‐403‐C290A/C393A protein was produced as described previously; made in house
T1 sequence (O14965 122-403 C290A/C393A): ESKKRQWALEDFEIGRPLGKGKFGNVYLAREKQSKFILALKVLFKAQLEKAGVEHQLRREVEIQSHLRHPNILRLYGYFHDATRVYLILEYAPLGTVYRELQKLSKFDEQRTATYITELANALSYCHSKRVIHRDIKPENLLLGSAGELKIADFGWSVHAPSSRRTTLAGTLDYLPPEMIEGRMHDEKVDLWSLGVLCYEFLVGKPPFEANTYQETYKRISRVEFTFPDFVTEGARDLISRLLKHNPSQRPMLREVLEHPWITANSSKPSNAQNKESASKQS
The data set is described as follows: competition fluorescence anisotropy (FA) assay against fluorescein labelled N‐Myc61‐89. Note: equilibrated 2 h at room temperature. It is filed as binding. The conditions noted are these: SD. As for the experimental part: Fluorescence anisotropy (FA) assays: All assays were performed using 384‐well plates (Greiner Bio‐one, UK). […] All samples were prepared in 25 mM Tris, 150 mM NaCl, 5 mM MgCl2, pH 7.5, and tested in triplicate using an EnVisionTM 2103 MultiLabel plate reader (Perkin Elmer; Waltham, MA, USA). The parameters were set as follows: Excitation wavelength=480 nm (30 nm bandwidth) and emission wavelength=535 nm (30 nm bandwidth). Measured data were processed and analysed as previously described.[31] Specifically, the perpendicular intensity (P) and parallel intensity (S) were subtracted by the control values and used for calculations of intensity and anisotropy using the following Equations 1, 2, 3, 4, and 5: (1) I=2PG+S (2) r=S-PG (3) Lb=r-rmin/λrmax-r+r-rmin (4) [drawing 1] (5) y=rmax+rmin-rmax/1+(x/x0)^p
For competition FA assays, the average anisotropy and the average standard deviation of the values derived from equation (2) were calculated and fit to a sigmoidal logistic model (equation (5)) using Origin 2021. […] Results are reported as IC50±SD, with data points representing the mean of three replicates and error bars indicating the corresponding SD. Where applicable, ΔΔG was determined as follows: ΔΔG=−RT ln (ΔIC50).

The nature of data set [2]: circular dichroism (CD) spectroscopy. The format is physicochemical. The conditions noted are these: 150 mM NaCl, 5 mM MgCl2, pH 7.5, 5 °C, n=2, free‐thiol (red) samples with 5 mol equivalents TCEP. On the procedure:
Circular dichroism (CD): All samples were prepared in Tris buffer (25 mM Tris, 150 mM NaCl, 5 mM MgCl2, pH 7.5) with the exception of free sulfhydryl peptides, to which Tris(2‐carboxyethyl)phosphine (TCEP; 5 mol eq. relative to the peptide) was added. CD spectra were recorded using an APP Chirascan CD spectropolarimeter and 1 mm pathlength quartz cuvettes. Sample concentrations were typically 30–120 μM, as determined by UV−V absorption based on a tryptophan extinction coefficient of 5600 M^−1 cm^−1 and, for mal‐constrained variants, a maleimide coefficient of 1700 M^−1 cm^−1.[16, 32] […] Spectra were recorded in duplicate at 5 °C, over wavelengths ranging from 290 to 180 nm, with data collected every 1 nm (1 nm s^−1). A background spectrum for CD buffer alone was also recorded and background ellipticity values were subtracted from raw sample ellipticity values (θ) when calculating mean residue ellipticities (MREs) using Equation 6: (6) MRE=(θλ-θ0)xMw/nxlxc
Where [θ]λ is the observed ellipticity at a given wavelength λ in mdeg, [θ]0 is the ellipticity observed for the buffer, Mw =molar weight of the peptide in g mol^−1, n=number of residues; c=sample concentration (mg mL^−1); l=pathlength of the cuvette in mm. Estimates of peptide % helicity were made using Equation 7, [33] (7) %helicity=(MRE222-MREcoil)x100/-425001-3/n
where MRE222 is the MRE value at 222 nm, MREcoil=640‐45T (with T in °C)=415 deg cm^2 dmol^−1 res^−1 at 5 °C, and n is the number of backbone amide bonds including the N‐terminal acetyl.

The term IC50 denotes the concentration that inhibits the measured activity by half. High values mean weaker potency, low ones greater potency. In data set [1], `CSCC[C@@H]1NC(=O)[C@H](CCC(=O)O)NC(=O)[C@@H](NC(=O)[C@@H](NC(=O)[C@H](Cc2c[nH]c3ccccc23)NC(=O)[C@H](CO)NC(=O)[C@@H]2CCCN2C(=O)[C@@H]2CCCN2C(=O)[C@H](CCC(=O)O)NC(=O)[C@H](CO)NC(=O)[C@H](CO)NC(=O)[C@H](Cc2c[nH]cn2)NC(=O)[C@H](CCC(=O)O)NC(=O)[C@H](C)NC(=O)[C@H](Cc2ccccc2)NC(=O)CNC(=O)[C@H](CCCNC(=N)N)NC(=O)[C@H](CO)NC(=O)[C@@H]2CCCN2C(=O)[C@H](CO)NC(=O)[C@H](CC(C)C)NC(C)=O)C(C)C)CSC2=C(SC[C@@H](C(=O)N[C@@H](CCC(=O)O)C(=O)N[C@@H](CC(N)=O)C(=O)N[C@@H](CCC(=O)O)C(=O)N[C@@H](CC(C)C)C(=O)N[C@@H](Cc3c[nH]c4ccccc34)C(=O)NCC(N)=O)NC(=O)[C@H](CC(C)C)NC1=O)C(=O)NC2=O` [N-Myc 61-89 T79C/L83C mal] (Ac-LSPSRGFAEHSSEPPSWVCEMLCENELWG-NH2; linker 19-23 via Maleimide(3,4-diyl)) showed an IC50 of 99 ± 2 µM.

In turn, `CC(=O)N[C@@H](CC(C)C)C(=O)N[C@@H](CO)C(=O)N1CCC[C@H]1C(=O)N[C@@H](CO)C(=O)N[C@@H](CCCNC(=N)N)C(=O)NCC(=O)N[C@@H](Cc1ccccc1)C(=O)N[C@@H](C)C(=O)N[C@@H](CCC(=O)O)C(=O)N[C@@H](Cc1c[nH]cn1)C(=O)N[C@@H](CO)C(=O)N[C@@H](CO)C(=O)N[C@@H](CCC(=O)O)C(=O)N1CCC[C@H]1C(=O)N1CCC[C@H]1C(=O)N[C@@H](CO)C(=O)N[C@@H](Cc1c[nH]c2ccccc12)C(=O)N[C@H](C(=O)N[C@H](C(=O)N[C@@H](CCC(=O)O)C(=O)N[C@H]1CSC2=C(SC[C@@H](C(=O)N[C@@H](CCC(=O)O)C(=O)N[C@@H](CC(C)C)C(=O)N[C@@H](Cc3c[nH]c4ccccc34)C(=O)NCC(N)=O)NC(=O)[C@H](CCC(=O)O)NC(=O)[C@H](CC(C)C)NC(=O)[C@H](CC(C)C)NC1=O)C(=O)NC2=O)[C@@H](C)O)C(C)C` [N-Myc 61-89 M81C/N85C mal] (Ac-LSPSRGFAEHSSEPPSWVTECLLECELWG-NH2; linker 21-25 via Maleimide(3,4-diyl)) showed an IC50 in data set [1] of 133 ± 3 µM. This IC50 and that of the molecule before are within 1.5-fold of each other. In turn, `CSCC[C@@H]1NC(=O)[C@@H](NC(=O)[C@@H](NC(=O)[C@@H](NC(=O)[C@H](Cc2c[nH]c3ccccc23)NC(=O)[C@H](CO)NC(=O)[C@@H]2CCCN2C(=O)[C@@H]2CCCN2C(=O)[C@H](CCC(=O)O)NC(=O)[C@H](CO)NC(=O)[C@H](CO)NC(=O)[C@H](Cc2c[nH]cn2)NC(=O)[C@H](CCC(=O)O)NC(=O)[C@H](C)NC(=O)[C@H](Cc2ccccc2)NC(=O)CNC(=O)[C@H](CCCNC(=N)N)NC(=O)[C@H](CO)NC(=O)[C@@H]2CCCN2C(=O)[C@H](CO)NC(=O)[C@H](CC(C)C)NC(C)=O)C(C)C)[C@@H](C)O)CSC2=C(SC[C@@H](C(=O)N[C@@H](CC(N)=O)C(=O)N[C@@H](CCC(=O)O)C(=O)N[C@@H](CC(C)C)C(=O)N[C@@H](Cc3c[nH]c4ccccc34)C(=O)NCC(N)=O)NC(=O)[C@H](CC(C)C)NC(=O)[C@H](CC(C)C)NC1=O)C(=O)NC2=O` [N-Myc 61-89 E80C/E84C mal] (Ac-LSPSRGFAEHSSEPPSWVTCMLLCNELWG-NH2; linker 20-24 via Maleimide(3,4-diyl)) came in with an IC50 in data set [1] of 86 ± 7 µM.

In data set [1], `CSCC[C@H](NC(=O)[C@H](CCC(=O)O)NC(=O)[C@@H](NC(=O)[C@@H](NC(=O)[C@H](Cc1c[nH]c2ccccc12)NC(=O)[C@H](CO)NC(=O)[C@@H]1CCCN1C(=O)[C@@H]1CCCN1C(=O)[C@H](CCC(=O)O)NC(=O)[C@H](CO)NC(=O)[C@H](CO)NC(=O)[C@H](Cc1c[nH]cn1)NC(=O)[C@H](CCC(=O)O)NC(=O)[C@H](C)NC(=O)[C@H](Cc1ccccc1)NC(=O)CNC(=O)[C@H](CCCNC(=N)N)NC(=O)[C@H](CO)NC(=O)[C@@H]1CCCN1C(=O)[C@H](CO)NC(=O)[C@H](CC(C)C)NC(C)=O)C(C)C)[C@@H](C)O)C(=O)N[C@@H](CC(C)C)C(=O)N[C@H]1CSC2=C(SC[C@@H](C(=O)N[C@@H](Cc3c[nH]c4ccccc34)C(=O)NCC(N)=O)NC(=O)[C@H](CCC(=O)O)NC(=O)[C@H](CC(N)=O)NC(=O)[C@H](CCC(=O)O)NC1=O)C(=O)NC2=O` [N-Myc 61-89L83C/L87C mal] (Ac-LSPSRGFAEHSSEPPSWVTEMLCENECWG-NH2; linker 23-27 via Maleimide(3,4-diyl)) displayed an IC50 of 129 ± 3 µM. On the same count and under the same terms, as for `CSCC[C@H](NC(=O)[C@H](CCC(=O)O)NC(=O)[C@@H](NC(=O)[C@@H](NC(=O)[C@H](Cc1c[nH]c2ccccc12)NC(=O)[C@H](CO)NC(=O)[C@@H]1CCCN1C(=O)[C@@H]1CCCN1C(=O)[C@H](CCC(=O)O)NC(=O)[C@H](CO)NC(=O)[C@H](CO)NC(=O)[C@H](Cc1c[nH]cn1)NC(=O)[C@H](CCC(=O)O)NC(=O)[C@H](C)NC(=O)[C@H](Cc1ccccc1)NC(=O)CNC(=O)[C@H](CCCNC(=N)N)NC(=O)[C@H](CO)NC(=O)[C@@H]1CCCN1C(=O)[C@H](CO)NC(=O)[C@H](CC(C)C)NC(C)=O)C(C)C)[C@@H](C)O)C(=O)N[C@H]1CSC2=C(SC[C@@H](C(=O)N[C@@H](CC(C)C)C(=O)N[C@@H](Cc3c[nH]c4ccccc34)C(=O)NCC(N)=O)NC(=O)[C@H](CC(N)=O)NC(=O)[C@H](CCC(=O)O)NC(=O)[C@H](CC(C)C)NC1=O)C(=O)NC2=O` [N-Myc 61-89 L82C/E86C mal] (Ac-LSPSRGFAEHSSEPPSWVTEMCLENCLWG-NH2; linker 22-26 via Maleimide(3,4-diyl)), the figure is 69 ± 18 µM. Regarding `CSCC[C@H](NC(=O)[C@H](CCC(=O)O)NC(=O)[C@@H](NC(=O)[C@H](CS)NC(=O)[C@H](Cc1c[nH]c2ccccc12)NC(=O)[C@H](CO)NC(=O)[C@@H]1CCCN1C(=O)[C@@H]1CCCN1C(=O)[C@H](CCC(=O)O)NC(=O)[C@H](CO)NC(=O)[C@H](CO)NC(=O)[C@H](Cc1c[nH]cn1)NC(=O)[C@H](CCC(=O)O)NC(=O)[C@H](C)NC(=O)[C@H](Cc1ccccc1)NC(=O)CNC(=O)[C@H](CCCNC(=N)N)NC(=O)[C@H](CO)NC(=O)[C@@H]1CCCN1C(=O)[C@H](CO)NC(=O)[C@H](CC(C)C)NC(C)=O)[C@@H](C)O)C(=O)N[C@@H](CS)C(=O)N[C@@H](CC(C)C)C(=O)N[C@@H](CCC(=O)O)C(=O)N[C@@H](CC(N)=O)C(=O)N[C@@H](CCC(=O)O)C(=O)N[C@@H](CC(C)C)C(=O)N[C@@H](Cc1c[nH]c2ccccc12)C(=O)NCC(N)=O` [N-Myc 61-89 V78C/L82C red] (Ac-LSPSRGFAEHSSEPPSWCTEMCLENELWG-NH2), the “MRE222 (mean residue ellipticity at 222 nm)” value in data set [2] (25 mM Tris, mean ± SD, SD) is on record as -1692 ± 70 deg cm^−1 dmol^−1 res^−1. Also, the “% Helicity (estimated)” value in data set [2] (from MRE222 by equation 7, 25 mM Tris) is recorded as 6 ± 1%. As for `CSCC[C@H](NC(=O)[C@@H]1CSC2=C(SC[C@H](NC(=O)[C@@H]3CCCN3C(=O)[C@@H]3CCCN3C(=O)[C@H](CCC(=O)O)NC(=O)[C@H](CO)NC(=O)[C@H](CO)NC(=O)[C@H](Cc3c[nH]cn3)NC(=O)[C@H](CCC(=O)O)NC(=O)[C@H](C)NC(=O)[C@H](Cc3ccccc3)NC(=O)CNC(=O)[C@H](CCCNC(=N)N)NC(=O)[C@H](CO)NC(=O)[C@@H]3CCCN3C(=O)[C@H](CO)NC(=O)[C@H](CC(C)C)NC(C)=O)C(=O)N[C@@H](Cc3c[nH]c4ccccc34)C(=O)N[C@@H](C(C)C)C(=O)N[C@@H]([C@@H](C)O)C(=O)N1)C(=O)NC2=O)C(=O)N[C@@H](CC(C)C)C(=O)N[C@@H](CC(C)C)C(=O)N[C@@H](CCC(=O)O)C(=O)N[C@@H](CC(N)=O)C(=O)N[C@@H](CCC(=O)O)C(=O)N[C@@H](CC(C)C)C(=O)N[C@@H](Cc1c[nH]c2ccccc12)C(=O)NCC(N)=O` [N-Myc 61-89 S76C/E80 mal] (Ac-LSPSRGFAEHSSEPPCWVTCMLLENELWG-NH2; linker 16-20 via Maleimide(3,4-diyl)), the IC50 in data set [1] turned out to be 147 ± 13 µM.
